Test results as given in patent US20210205329A1 (The University of North Carolina at Chapel Hill, priority 2018, published 2021).
Where two headings read alike, the source gives them in different places.

Experiments:
Type in all cases: cell-based, mouse
[1] = system: RAW264.7 cells; assay: Non-activated RAW264.7 cells in the absence of LPS (immunoblotting); conditions: 1 μM, 24 hrs
Description: FIGS. 3A and 3B depict neurosteroids targeting the activated TLR4 signal by inhibiting TLR4/MD-2 binding. (FIG. 3A) 3α,5α-THP and pregnenolone specifically target the activated TLR4 signal. RAW264.7 cells untreated (CTL) or treated with 3α,5α-THP (THP; 1 μM) or pregnenolone (Preg; 1 μM) were harvested after 24 hrs. […] (FIG. 3B) Neurosteroids inhibit TLR4 signal activation in RAW264.7 ceils by blocking TLR4/MD-2 binding. RAW246.7 cells were treated with IPS (1 μg/ml) without or with 3α,5α-THP (THP; 1.0 μM) or pregnenolone (Preg; 1.0 μM) and protein extracts collected at 24 hrs post-treatment were immunoprecipitated (IP) with antibody to TLR4 or TLR2. The precipitates were immunoblotted (IB) with MD-2 antibody. Normal IgG was used as control. MD-2 co-precipitated with TLR4, but not normal IgG. […] HMGB1 co-precipitated with both TLR4 and TLR2 and its levels were not altered by the neurosteroids.
Immunoblotting. […] The total protein was determined by the bicinchoninic acid assay (BCA, Thermo Fisher Scientific, Waltham, Mass., USA, Cat. #23228 and Cat. #1859078). […] Quantitation was by densitometric scanning with a Bio-Rad GS-700 imaging densitometer. […] Each densitometric measurement was divided by the corresponding β-Actin densitometric measurement and the results [n=5/group] are expressed as the mean β-Actin-adjusted densitometric units±SEM. […]

[2] = system: LPS-activated TLR4 signal; assay: LPS-activated TLR4 signaling in RAW264.7 cells (immunoblotting); conditions: for effect on TLR4 expression: 0.5 μM or 1 μM, LPS-treated RAW264.7, 24 hrs; for inhibition of LPS-induced NFκB p50 / inhibition of the effect of LPS activation of TLR4 on MCP-1 / inhibition of the effect of LPS activation on TRAF6 / inhibition of the effect of LPS activation on pTAK1 / inhibition of the effect of LPS on HMGB1 / inhibition of the effect of LPS on TNFα / inhibition of the effect of LPS on pCREB / inhibition of the effect of LPS on phospho-NF-κB p65 / inhibition at 0.5 µM / inhibition at 1 µM: LPS 1 μg/ml, 24 hrs; for inhibition of LPS-induced NFκB p50 / inhibition of the effect of LPS activation of TLR4 on MCP-1 / inhibition of the effect of LPS activation on TRAF6 / inhibition of the effect of LPS activation on pTAK1 / inhibition of the effect of LPS on HMGB1 / inhibition of the effect of LPS on TNFα / inhibition of the effect of LPS on pCREB / inhibition of the effect of LPS on phospho-NF-κB p65 / inhibition of LPS-increased pTAK1, TRAF6, NFκB p50, phospho-NF-κB p65, pCREB, HMGB1, MCP-1 and TNFα (overall) / inhibition at 0.5 µM / inhibition at 1 µM: RAW264.7; for inhibition of LPS-increased pTAK1, TRAF6, NFκB p50, phospho-NF-κB p65, pCREB, HMGB1, MCP-1 and TNFα (overall): 0.5-1.0 μM; for inhibition at 0.5 µM / inhibition at 1 µM: Mus musculus
Description: Cells and reagents. Mouse monocyte macrophage ceils (RAW264.7) that innately express the TLR4 receptor were obtained from American Type Culture Collection (Manassas, Va., USA). The cells were grown in Dulbecco's modified Eagle's medium (DMEM) (Gibco; Gaithersburg, Md., USA) supplemented with 10% fetal bovine serum (FBS, Gemini, West Sacramento, Calif., USA), 1% penicillin/streptomycin 100× (Gibco) at 37° C. in a 5% CO2 humidified atmosphere. The TLR4-specific ligand IPS was purchased from Sigma-Aldrich (St. Louis, Mo., USA) (Cat. #L3024) and added to the cultures (1 μg/ml) 24 hrs before cell collection.
Immunoblotting. The assay used for RAW264.7 cell lysates and co-immunoprecipitation was as previously described (Aurelian et al, 2016; June et al, 2015; Liu et al, 2011). RAW246.7 cells grown on T-75 flasks (n=5 flasks/group) were lysed with radioimmunoprecipitation (RIPA) buffer [20 mM Tris-HCl (pH 7.4), […], 1% Nonidet P-40 (Sigma, St. Louis, Mo., USA), 0.1% SDS (sodium dodecyl sulfate), 0.5% sodium deoxycholate] supplemented with protease and phosphatase inhibitor cocktails (Sigma). The total protein was determined by the bicinchoninic acid assay (BCA, Thermo Fisher Scientific, Waltham, Mass., USA, Cat. #23228 and Cat. #1859078). The proteins (100 μg/lane) were resolved by SDS-polyacrylamide gel electrophoresis using freshly prepared 16×18 cm gels and transferred to polyvinylidene fluoride membranes (PVDF, Bio-Rad, Cat. #162-0177). Blots were blocked with 5% Blotting-Grade Blocker (Bio-Rad, Cat. #1706404; for non-phosphorylated primary antibodies) or 5% BSA (for phosphorylated primary antibodies) for 2 hrs at room temperature (RT) and exposed to primary antibody overnight (4° C.), followed by horseradish peroxidase-labeled secondary antibodies for 1 h (room temp), immunoreactive bands were visualized with the Plus-ECL kit reagents (Perkin Elmer, Waltham, Mass., USA, Cat. #NEL105001EA) followed by exposure to high-performance chemiluminescence film (Hyperfilm ECL; Amersham). Quantitation was by densitometric scanning with a Bio-Rad GS-700 imaging densitometer. Blots were stripped and re-probed with different primary antibodies 3-5 times. Each densitometric measurement was divided by the corresponding β-Actin densitometric measurement and the results [n=5/group] are expressed as the mean β-Actin-adjusted densitometric units±SEM.
To examine whether the neurosteroids inhibit the LPS-activated TLR4 signal, RAW264.7 cells were treated with IPS (1 μg/mi; 24 hrs) in the absence or presence of 3α,5α-THP (0.5 μM, 1 μM) or pregnenolone (0.5 μM, 1 μM), and ceil extracts were assayed for expression of MyD88-dependent pathway members, by immunoblotting with antibodies to pTAK1, monocyte chemotactic protein (MCP-1), TRAF6, TLR4, and transcription factor NFκB p50 (Chattopadhyay S, et al. (2014). Cytokine Growth Factor Rev 25(5): 533-541; Irie T, et al. (2000). FEBS Lett 467(2-3): […]; Lu Y C, et al. (2008). Cytokine 42(2): 145-151).
Because the neurosteroids had relatively little effect on NFκB p50, the possibility that inhibition of other transcription factors and proinflammatory responses may be involved was considered. RAW246.7 ceils were treated as described above and protein extracts were immunoblotted with antibodies to phospho-NF-κB p65, pCREB, the proinflammatory cytokine tumor necrosis factor alpha (TNFα), and high mobility group box-1 (HMGB1), a highly conserved non-histone chromosomal protein, the translocation of which from the intra- to extra-cellular environment is a critical event in inflammatory responses. Indeed, HMGB1 is currently recognized as a cytokine secreted from activated macrophages and other inflammatory cells during the innate immune response and if is believed to function as a TLR4 ligand. […]

[3] = system: TLR7 signal; assay: Imiquimod-activated TLR7 signaling in RAW264.7 cells; conditions: 1 μM; imiquimod 1 μg/ml; 24 hours
Description: Because multiple TLRs signal through MD-2, […] and MyD-88, the specificity of the neurosteroid 3α,5α-THP on TLR2, TLRS and TLR7 signal activation was examined in RAW264.7 ceils (FIG. 7). Pam3Cys (10 μg/ml) activated TLR2 signaling, evidenced by increases in pCREB, pERK1/2, TRAF6 and pATF-2, that were sustained for 24 hrs and inhibited by 3α,5α-THP (1 μM) (50-60% compared to vehicle).

CC(=O)[C@H]1CC[C@H]2[C@@H]3CC=C4C[C@@H](O)CC[C@]4(C)[C@H]3CC[C@]12C [pregnenolone]
expression of pTAK1, TRAF6, and MCP1 in non-activated cells [1]: failed to inhibit
effect on TLR4 expression [2]: did not affect
inhibition of LPS-induced NFκB p50 ([2]; 0.5 μM): 25.3±7.4%
inhibition of the effect of LPS activation of TLR4 on MCP-1 ([2]; 0.5 μM): 77.3±7.3%
inhibition of the effect of LPS activation on TRAF6 ([2]; 0.5 μM): 73.7±1.3%
inhibition of the effect of LPS activation on pTAK1 ([2]; 0.5 μM): 76.2±2.0%
inhibition of the effect of LPS on HMGB1 ([2]; 0.5 μM): 52.0±9.8%
inhibition of the effect of LPS on TNFα ([2]; 0.5 μM): 61.7±3.6%
inhibition of the effect of LPS on pCREB ([2]; 0.5 μM): 84.8±9.9%
inhibition of the effect of LPS on phospho-NF-κB p65 ([2]; 0.5 μM): 86.7±7.3%
inhibition of LPS-induced NFκB p50 ([2]; 1.0 μM): 28.8±6.7%
inhibition of the effect of LPS activation of TLR4 on MCP-1 ([2]; 1.0 μM): 85.8±4.4%
inhibition of the effect of LPS activation on TRAF6 ([2]; 1.0 μM): 88.5±6.8%
inhibition of the effect of LPS activation on pTAK1 ([2]; 1.0 μM): 95.2±2.5%
inhibition of the effect of LPS on HMGB1 ([2]; 1.0 μM): 57.5±12.8%
inhibition of the effect of LPS on TNFα ([2]; 1.0 μM): 65.1±7.7%
inhibition of the effect of LPS on pCREB ([2]; 1.0 μM): 83.7±8.9%
inhibition of the effect of LPS on phospho-NF-κB p65 ([2]; 1.0 μM): 88.1±5.5%
inhibition of LPS-increased pTAK1, TRAF6, NFκB p50, phospho-NF-κB p65, pCREB, HMGB1, MCP-1 and TNFα (overall) [2]: ~80%

CC(=O)[C@H]1CC[C@H]2[C@@H]3CC[C@H]4C[C@H](O)CC[C@]4(C)[C@H]3CC[C@]12C [3α,5α-THP, (3α,5α)3-hydroxypregnan-20-one]
expression of pTAK1, TRAF6, and MCP1 in non-activated cells [1]: failed to inhibit
effect on TLR4 expression [2]: did not affect
inhibition of LPS-increased pTAK1, TRAF6, NFκB p50, phospho-NF-κB p65, pCREB, HMGB1, MCP-1 and TNFα (overall) [2]: ~80%
inhibition at 0.5 µM ([2]; 0.5 μM, read-out: inhibition of LPS-induced NFκB p50): 19.8 ± 7.9%
inhibition at 0.5 µM ([2]; 0.5 μM, read-out: inhibition of the effect of LPS activation of TLR4 on MCP-1): 81.5 ± 3.8%
inhibition at 0.5 µM ([2]; 0.5 μM, read-out: inhibition of the effect of LPS activation on TRAF6): 54.5 ± 5.5%
inhibition at 0.5 µM ([2]; 0.5 μM, read-out: inhibition of the effect of LPS activation on pTAK1): 37.8 ± 7.7%
inhibition at 0.5 µM ([2]; 0.5 μM, read-out: inhibition of the effect of LPS on HMGB1): 88.9 ± 11%
inhibition at 0.5 µM ([2]; 0.5 μM, read-out: inhibition of the effect of LPS on TNFα): 77.8 ± 7.3%
inhibition at 0.5 µM ([2]; 0.5 μM, read-out: inhibition of the effect of LPS on pCREB): 97.2 ± 1.9%
inhibition at 0.5 µM ([2]; 0.5 μM, read-out: inhibition of the effect of LPS on phospho-NF-κB p65): 90.1 ± 8.5%
inhibition at 1 µM ([2]; 1.0 μM, read-out: inhibition of LPS-induced NFκB p50): 38.3 ± 7.3%
inhibition at 1 µM ([2]; 1.0 μM, read-out: inhibition of the effect of LPS activation of TLR4 on MCP-1): 85.2 ± 4.5%
inhibition at 1 µM ([2]; 1.0 μM, read-out: inhibition of the effect of LPS activation on TRAF6): 55.3 ± 2.6%
inhibition at 1 µM ([2]; 1.0 μM, read-out: inhibition of the effect of LPS activation on pTAK1): 71.7 ± 3.6%
inhibition at 1 µM ([2]; 1.0 μM, read-out: inhibition of the effect of LPS on HMGB1): 58.6 ± 5.5%
inhibition at 1 µM ([2]; 1.0 μM, read-out: inhibition of the effect of LPS on TNFα): 70.9 ± 3.5%
inhibition at 1 µM ([2]; 1.0 μM, read-out: inhibition of the effect of LPS on pCREB): 94.8 ± 3.4%
inhibition at 1 µM ([2]; 1.0 μM, read-out: inhibition of the effect of LPS on phospho-NF-κB p65): 88.9 ± 10.8%
effect of imiquimod on pIRF7 [3]: completely inhibited
